# Laboratory results reported in patent US7012060B1, “TNF receptor and steroid hormone in a combined therapy” (priority 1995, dated 2006).
# Marks after values point to notes of the source that are not given here.
# Tests used:
# [1] = test system: septic shock induced by LPS + D-Galactosamine, in mice; assay: LPS+D-Galactosamine-induced septic shock model; assay type: in vivo, SPF female BALB/c inbred mice
# Procedure: The experiments were carried out in vivo on mice. The septic shock was induced by an i.p. administration of a mixture of LPS (0.1 μg/mouse) and D-Galactosamine (18 mg/mouse).
# The treatment schedule for r-hTBP-1 based on repeated administrations (the total dose was divided into 4 administrations given at time 0 and […] and 24 hours after), was adopted. CHO r-hTBP-1 was tested, alone or in combination with DHEA, at dose levels of 62.5 and 125 μg/mouse (total dose).
# DHEA was tested both in a single administration injected i.p. one hour before and contemporaneously to the septic shock-inducing agent at doses encompassed between 100 and 2.000 μg/mouse and in repeated treatment with the total dose (250 μg/mouse) divided into 4 injections given within 24 hours.
# The above treatment schedules of DHEA (doses from 250 to 1,500 μl g/mouse) were followed also in combination with r-hTBP-1 which was tested at the total dose varying from 62.5 to 125 μg/mouse (divided into 4 administrations).
# SPF female BALB/c inbred mice, 6–8 weeks (about 18–20 g b.w.), from Charles River were used throughout the whole study after an acclimatisation period of at least 7 days.
# Unless otherwise specified, in all the experiments the mice were randomly divided into groups of 10 animals each.
# Both substances were dissolved in saline. The mixture of LPS (0.1 μg/mouse) and D-Galactosamine (18 mg/mouse) was prepared by mixing equal volumes of these substances. The mixture was subsequently injected to animals by the i.p. route. This dose was selected under precious experiments as that inducing around 80% mortality calculated as the number of dead vs. total number of mice for each croup. The lethality was monitored after 24, 48, 72 and 96 hours and at day 7 post-treatment.
# The drug was diluted in saline and injected by repeated administrations, i.e. i.v. immediately before the inoculum of LPS plus D-Galactosamine and s.c. 3, 6 and 24 hours later.
# The effects of DHEA, alone or in combination with r-hTBP-1, were assayed after single i.p. administrations at different times in respect to LPS+D-Galactosamine injection; in particular, it was administered 1 hour before and contemporaneously to the septic shock-inducing agent.
# A repeated treatment schedule was also investigated in which DHEA was administered at time 0 (septic shock induction) and 3, 6 and 24 hours later. DHEA was initially vehicled in a mixture of 2.5% alcohol and 10% rabbit serum in saline. To improve the solubility and standardise the preparation, the steroid was successively dispersed in a mixture of 2.5% alcohol and 10% phospholipid emulsion in saline.
# The primary end point was the survival rate at 48 hours after induction of septic shock. The comparison of the effects of each treatment group vs. controls and among treatment groups was effected by Fisher's exact test, one-tailed. The same comparison was also performed at the other time points. The results in each treatment group were expressed as percent survival.
# In all the experiments, percent survival values were calculated using the survival Tables for the follow up studies (Armitage P. Cap. XIV. Tavole di sopravvivenza in Statistica Medica, Feltrinelli, Milano). The χ^2-test was applied to each observation time by comparing the DHEA+r-hTBP-1 groups to the other groups.
# TNF-α = conditions: both in vivo and in vitro; cited from earlier work
compound,measurement,setting,value
"C[C@]12CC[C@H](O)CC1=CC[C@@H]1[C@@H]2CC[C@]2(C)C(=O)CC[C@@H]12 [DHEA, Dehydroepiandrosterone]",% cumulative survival,"[1]; DHEA 1500 μg/mouse i.p. 1 hour before LPS + D-Gal, saline 10% rabbit serum, 48 hrs, 2nd exp",70^a %
same,% cumulative survival,"[1]; DHEA 1500 μg/mouse i.p. 1 hour before LPS + D-Gal, saline 10% rabbit serum, 72 hrs, 2nd exp",50%
same,% cumulative survival,"[1]; DHEA 1500 μg/mouse i.p. 1 hour before LPS + D-Gal, saline 10% rabbit serum, 96 hrs, 2nd exp",50%
same,% cumulative survival,"[1]; DHEA 2000 μg/mouse i.p. 1 hour before LPS + D-Gal, saline 10% rabbit serum, 24 hrs, 1st exp",100^a %
same,% cumulative survival,"[1]; DHEA 2000 μg/mouse i.p. 1 hour before LPS + D-Gal, saline 10% rabbit serum, 24 hrs, 2nd exp",100^a %
same,% cumulative survival,"[1]; DHEA 2000 μg/mouse i.p. 1 hour before LPS + D-Gal, saline 10% rabbit serum, 48 hrs, 1st exp",100^a %
same,% cumulative survival,"[1]; DHEA 2000 μg/mouse i.p. 1 hour before LPS + D-Gal, saline 10% rabbit serum, 48 hrs, 2nd exp",100^a %
same,% cumulative survival,"[1]; DHEA 2000 μg/mouse i.p. 1 hour before LPS + D-Gal, saline 10% rabbit serum, 72 hrs, 1st exp",100^a %
same,% cumulative survival,"[1]; DHEA 2000 μg/mouse i.p. 1 hour before LPS + D-Gal, saline 10% rabbit serum, 72 hrs, 2nd exp",100^a %
same,% cumulative survival,"[1]; DHEA 2000 μg/mouse i.p. 1 hour before LPS + D-Gal, saline 10% rabbit serum, 96 hrs, 1st exp",100^a %
same,% cumulative survival,"[1]; DHEA 2000 μg/mouse i.p. 1 hour before LPS + D-Gal, saline 10% rabbit serum, 96 hrs, 2nd exp",100^a %
same,survival,[1]; DHEA 1.000 and 1.500 μg/mouse alone,0–40%
same,protective effects,"[1]; DHEA at doses higher than 1.000 μg/mouse, 1 hour before LPS+D-Galactosamine",statistically significant protective effects
same,protective effects,"[1]; DHEA up to 1.000 μg/mouse, 1 hour before LPS+D-Galactosamine",No protective effects
same,% cumulative survival,"[1]; Table 2, DHEA 1000 μg/mouse i.p. 1 hour before LPS + D-Gal, saline 10% rabbit serum, 24 hrs",0%
same,% cumulative survival,"[1]; Table 2, DHEA 1000 μg/mouse i.p. 1 hour before LPS + D-Gal, saline 10% rabbit serum, 48 hrs",0%
same,% cumulative survival,"[1]; Table 2, DHEA 1000 μg/mouse i.p. 1 hour before LPS + D-Gal, saline 10% rabbit serum, 72 hrs",0%
same,% cumulative survival,"[1]; Table 2, DHEA 1000 μg/mouse i.p. 1 hour before LPS + D-Gal, saline 10% rabbit serum, 96 hrs",0%
same,% cumulative survival,"[1]; Table 2, DHEA 1500 μg/mouse i.p. 1 hour before LPS + D-Gal, saline 10% rabbit serum, 24 hrs",40%
same,% cumulative survival,"[1]; Table 2, DHEA 1500 μg/mouse i.p. 1 hour before LPS + D-Gal, saline 10% rabbit serum, 48 hrs",40%
same,% cumulative survival,"[1]; Table 2, DHEA 1500 μg/mouse i.p. 1 hour before LPS + D-Gal, saline 10% rabbit serum, 72 hrs",20%
same,% cumulative survival,"[1]; Table 2, DHEA 1500 μg/mouse i.p. 1 hour before LPS + D-Gal, saline 10% rabbit serum, 96 hrs",20%
same,% cumulative survival,"[1]; Table 4, DHEA 250 μg single injection at time 0 i.p., NaCl 10% PLE, 24 hr",40%
same,% cumulative survival,"[1]; Table 4, DHEA 250 μg single injection at time 0 i.p., NaCl 10% PLE, 48 hr",30%
same,% cumulative survival,"[1]; Table 4, DHEA 250 μg single injection at time 0 i.p., NaCl 10% PLE, 72 hr",30%
same,% cumulative survival,"[1]; Table 4, DHEA 250 μg single injection at time 0 i.p., NaCl 10% PLE, 96 hr",30%
same,% cumulative survival,"[1]; Table 4, DHEA 250 μg single injection at time 0 i.p., NaCl 10% RS, 24 hr",30%
same,% cumulative survival,"[1]; Table 4, DHEA 250 μg single injection at time 0 i.p., NaCl 10% RS, 48 hr",30%
same,% cumulative survival,"[1]; Table 4, DHEA 250 μg single injection at time 0 i.p., NaCl 10% RS, 72 hr",30%
same,% cumulative survival,"[1]; Table 4, DHEA 250 μg single injection at time 0 i.p., NaCl 10% RS, 96 hr",30%
same,% cumulative survival,"[1]; Table 5 group D, DHEA 250 μg single injection at time 0 i.p., NaCl 10% PLE, 24 hrs, 1st exp.",40%
same,% cumulative survival,"[1]; Table 5 group D, DHEA 250 μg single injection at time 0 i.p., NaCl 10% PLE, 48 hrs, 1st exp.",30%
same,% cumulative survival,"[1]; Table 5 group D, DHEA 250 μg single injection at time 0 i.p., NaCl 10% PLE, 72 hrs, 1st exp.",30%
same,% cumulative survival,"[1]; Table 5 group D, DHEA 250 μg single injection at time 0 i.p., NaCl 10% PLE, 96 hrs, 1st exp.",30%
same,% cumulative survival,"[1]; Table 5 group E, DHEA 62.5 μg x4 at time 0, 3, 6 and 24 hours i.p., NaCl 10% PLE, 24 hrs, 1st exp.",40%
same,% cumulative survival,"[1]; Table 5 group E, DHEA 62.5 μg x4 at time 0, 3, 6 and 24 hours i.p., NaCl 10% PLE, 24 hrs, 2nd exp.",40%
same,% cumulative survival,"[1]; Table 5 group E, DHEA 62.5 μg x4 at time 0, 3, 6 and 24 hours i.p., NaCl 10% PLE, 48 hrs, 1st exp.",40%
same,% cumulative survival,"[1]; Table 5 group E, DHEA 62.5 μg x4 at time 0, 3, 6 and 24 hours i.p., NaCl 10% PLE, 48 hrs, 2nd exp.",40%
same,% cumulative survival,"[1]; Table 5 group E, DHEA 62.5 μg x4 at time 0, 3, 6 and 24 hours i.p., NaCl 10% PLE, 72 hrs, 1st exp.",40%
same,% cumulative survival,"[1]; Table 5 group E, DHEA 62.5 μg x4 at time 0, 3, 6 and 24 hours i.p., NaCl 10% PLE, 72 hrs, 2nd exp.",40%
same,% cumulative survival,"[1]; Table 5 group E, DHEA 62.5 μg x4 at time 0, 3, 6 and 24 hours i.p., NaCl 10% PLE, 96 hrs, 1st exp.",40%
same,% cumulative survival,"[1]; Table 5 group E, DHEA 62.5 μg x4 at time 0, 3, 6 and 24 hours i.p., NaCl 10% PLE, 96 hrs, 2nd exp.",40%
same,protection from death (survival),"[1]; at least 1.500 μg/mouse DHEA, 1 hour before LPS+D-Galactosamine",70%
same,TNF-α levels after LPS administration,TNF-α,significantly blocked
